Structures can show the parent of a compound that is named as a salt.
What was measured:
[1] = test system: CC101.19 cl.7 (AD101 resistant); test: microbe, parasite or virus in culture; format: cell-based, HIV-1; settings: for IC90: Human immunodeficiency virus 1; for IC50: Human immunodeficiency virus 1, CC101.19 cl.7 (AD101 resistant)
Experimental: (§1) MAGI-CCR5 cells[18] were maintained in DMEM supplemented with 10% fetal calf serum (FCS: Gemini Bio-Products, West Sacramento, CA), 200 μg/ml G418, 100 μg/ml hygromycin B, and 100 μg/ml zeomycin. The Chinese hamster ovary (CHO) cells expressing CCR5[19] were maintained in Ham’s F-12 medium (GIBCO-BRL, Rockville, MD) supplemented with 10% FCS, 50 U/ml penicillin, and 50 μg/ml streptomycin in the presence of 5 μg/ml blasticidin S hydrochloride. TZM-bl cells were obtained from the NIH AIDS Reagent Program, and were cultured in DMEM with 10% FCS. Peripheral blood mononuclear cells (PBMCs) were isolated from buffy coats of HIV-1 seronegative individuals, and were activated with 10 μg/ml phytohemagglutinin (PHA) prior to use[16]. A laboratory wild-type R5-HIV-1 strain (HIV-1Ba-L)[37] was employed for drug susceptibility assays. AD101 (experimental CCR5 inhibitor) and VVC-resistant HIV clones[7],[8] were provided by Dr. John P. Moore of Cornell University for this study. The clones were propagated with activated PBMCs, and were used for the assays. A clinical HIV-1 strain, HIV-1KP-5pc, and an MVC-resistant isolate, HIV-1KP-5mvcR, were prepared and used for antiviral assays, as previously described[10],[38]. The following reagents (plasmids) for T/F HIV-1 viruses[22],[24] were obtained through the NIH AIDS Reagent Program, Division of AIDS, NIAID, NIH: pCH040.c/2625 (cat# 11740), pCH106.c/2633 (cat# 11743), pTHRO.c/2626 (cat# 11745), and pCH058.c/2960 (cat# 11856), from Dr. John Kappes and Dr. Christina Ochsenbauer.
(§2) Antiviral assays using PHA-PBMCs (p24 assay) were conducted as previously reported[16],[38]. In brief, PHA-PBMCs (1 × 10^6/ml) were exposed to 50 TCID50 of HIV-1Ba-L or drug-resistant HIV-1 infectious clones in the presence or absence of various concentrations of drugs; 10-fold serial dilutions were performed in 96-well microculture plates. The amount of p24 antigens produced by the cells was determined on day 7 in the culture via a commercially available ELISA kit (PerkinElmer). The p24 production level in drug-free control cell cultures was used as the reference. […] Antiviral assays using MAGI-CCR5 cells (MAGI assay) were conducted as previously reported[16],[39]. Single-round virus infection assays using TZM-bl cells infected with R5-HIV-1s (HIV-1YU2, HIV-1KP-5pc, and HIV-1KP-5mvcR)[10] were also conducted as previously described.

[2] = test system: D1/85.16 cl.23 (VVC resistant); test: microbe, parasite or virus in culture; format: cell-based, HIV-1; settings: for IC90: Human immunodeficiency virus 1; for IC50: Human immunodeficiency virus 1, D1/85.16 cl.23 (VVC resistant)
Experimental: as §1, §2

R5-HIV-1BaL = test: p24 assay using PBMCs and R5-HIV-1BaL; format: cell-based; settings: Human immunodeficiency virus 1, BAL, PBMC, 168 h, Ba-L (PBMCs), day 7
Experimental: as §1, §2

CC1/85 cl.6 = test: Anti-HIV-1 assay, drug-naive clinical strain CC1/85 cl.6; format: cell-based; settings: Human immunodeficiency virus 1; CC1/85 cl.6, drug naive R5-HIV-1 clinical strain; read-out: IC50
Experimental: as §1, §2

R5-HIV-1Ba-L = test: MAGI assay using MAGI/CCR5 cells and R5-HIV-1Ba-L; format: cell-based; settings: Human immunodeficiency virus 1, BAL, Ba-L (MAGI)
Experimental: as §1, §2

CC1/85 cl.7 = test: Anti-HIV-1 assay, drug-naive clinical strain CC1/85 cl.7; format: cell-based; settings: Human immunodeficiency virus 1
Experimental: as §1, §2

pCH058.c/2960 = test: MAGI assay, T/F HIV-1 clone pCH058.c/2960; format: cell-based; settings: Human immunodeficiency virus 1, MAGI
Description: (§3) We also examined the activity of GRL-compounds against Transmitter/founder (T/F) HIV-1 viruses. T/F viruses are involved in the initial infection. It is considered that T/F viruses virtually always use CCR5 rather than CXCR4 and infect T cells but not macrophages because […] of CD4 is needed to mediate virus entry for the initial transmission[20]–[24]. […] We obtained four HIV-1 T/F infectious clones. We determined the antiviral activity of GRL-117C, GRL-10007C and GRL-10018C on these HIV-1 clones using MAGI assay.
as §1, with “A clinical HIV-1 strain, HIV-1KP-5pc, and an MVC-resistant isolate, HIV-1KP-5mvcR, were prepared and used for antiviral assays, as previously described[10],[38].” left out
as §2

pTHRO.c/2626 = test: MAGI assay, T/F HIV-1 clone pTHRO.c/2626; format: cell-based; settings: Human immunodeficiency virus 1, MAGI
Description: as §3
as §1, with “A clinical HIV-1 strain, HIV-1KP-5pc, and an MVC-resistant isolate, HIV-1KP-5mvcR, were prepared and used for antiviral assays, as previously described[10],[38].” left out
as §2

pCH040.c/2625 = test: MAGI assay, T/F HIV-1 clone pCH040.c/2625; format: cell-based; settings: Human immunodeficiency virus 1, MAGI
Description: as §3
as §1, with “A clinical HIV-1 strain, HIV-1KP-5pc, and an MVC-resistant isolate, HIV-1KP-5mvcR, were prepared and used for antiviral assays, as previously described[10],[38].” left out
as §2

pCH0.6.c/2633 = test: MAGI assay, T/F HIV-1 clone pCH0.6.c/2633; format: cell-based; settings: Human immunodeficiency virus 1, MAGI
Description: as §3
as §1, with “A clinical HIV-1 strain, HIV-1KP-5pc, and an MVC-resistant isolate, HIV-1KP-5mvcR, were prepared and used for antiviral assays, as previously described[10],[38].” left out
as §2

HIV-1KP-5pc = test: TZM-bl single-round infection assay, HIV-1KP-5pc; format: cell-based; settings: for IC50: KP-5pc, drug-sensitive clinical strain, TZM-bl assay, mean ± SD
Experimental: as §1, §2

HIV-1YU2 = test: TZM-bl single-round infection assay, HIV-1YU2; format: cell-based; settings: Human immunodeficiency virus 1, YU2, drug-sensitive, mean ± SD
Experimental: as §1, §2

HIV-1KP-5mvcR = test: TZM-bl single-round infection assay, MVC-resistant HIV-1KP-5mvcR; format: cell-based
Experimental: as §1, §2

[3] = Human immunodeficiency virus 1, TZM-bl

CCO/N=C(\c1ccc(Br)cc1)C1CCN(C2(C)CCN(C(=O)c3c(C)cc[n+]([O-])c3C)CC2)CC1 [SCH-C]
IC90 [1]: > 1000 nM | IC50 [1]: > 1000 nM | IC90 [2]: > 1000 nM | IC50 [2]: 412 nM | IC50 (R5-HIV-1BaL): 13.9 nM | IC90 (R5-HIV-1BaL): 97.2 nM | IC50 (CC1/85 cl.6): 5.2 nM | IC50 (R5-HIV-1Ba-L): 4.8 nM | IC90 (R5-HIV-1Ba-L): 15.9 nM | IC50 (CC1/85 cl.7): 6.1 nM | IC90 (CC1/85 cl.7): 67.7 nM

CCCCN1C(=O)[C@@H]([C@H](O)C2CCCCC2)NC(=O)C12CCN(Cc1ccc(Oc3ccc(C(=O)O)cc3)cc1)CC2 [APL, 4-[4-[(3 R)-1-butyl-3-[(1 R)cyclohexylhydroxymethyl]-2,5-dioxo-1,4,9-triazaspiro [5.5]undec-9 ylmethyl]phenoxy] benzoic acid hydrochloride]
IC50 (pCH058.c/2960): 1.7 ± 0.2 nM | IC90 [1]: 200 nM | IC50 [1]: 16.3 nM | IC90 [2]: 98.6 nM | IC50 [2]: 8.6 nM | IC50 (pTHRO.c/2626): 0.9 ± 0.1 nM | IC50 (pCH040.c/2625): 0.7 ± 0.2 nM | IC50 (pCH0.6.c/2633): 1.9 ± 0.2 nM | IC50 (R5-HIV-1BaL): 2.6 nM | IC90 (R5-HIV-1BaL): 13.4 nM | IC50 (CC1/85 cl.6): 1.5 nM | IC50 (R5-HIV-1Ba-L): 0.2 nM | IC90 (R5-HIV-1Ba-L): 4.9 nM | IC50 (CC1/85 cl.7): 1.8 nM | IC90 (CC1/85 cl.7): 11.3 nM

CCCCOCCOc1ccc(-c2ccc3c(c2)/C=C(/C(=O)Nc2ccc([S@@+]([O-])Cc4cncn4CCC)cc2)CCCN3CC(C)C)cc1 [CVC, cenicriviroc]
IC90 (HIV-1KP-5pc; [3]): 105 nM | IC50 (HIV-1KP-5pc; [3]): 4.1 nM | IC50 (HIV-1KP-5pc): 4.9 ± 2.2 nM | IC50 (HIV-1YU2): 1.1 ± 0.7 nM | IC90 (HIV-1YU2): 6.2 nM | IC50 (HIV-1KP-5mvcR; [3]): 260 ± 352 nM | IC90 (HIV-1KP-5mvcR; [3]): > 300 nM | fold change of IC50 values between HIV-1KP-5pc (wild type) and HIV-1KP-5mvcR (HIV-1KP-5mvcR; KP-5mvcR vs KP-5pc / wild type): 63 fold

Reference: publication PMC6423129, “Activity and structural analysis of GRL-117C: a novel small molecule CCR5 inhibitor active against R5-tropic HIV-1s” (Scientific Reports, 2019)
